What was measured:
[1] = molecular target: T1, human SGLT1 (Homo sapiens, UniProt P13866); assay: Inhibition test for sodium-dependent sugar uptake in CHO-K1 cells stably expressing human SGLT1; format: cell-based; conditions: [14C]methyl α-D-glucopyranoside uptake, 37° C., 30 minutes, read-out: IC50 for hSGLT1
T1 construct: expressed in transfected cells; host or cells: CHO-K1
T1 sequence (P13866 1-664): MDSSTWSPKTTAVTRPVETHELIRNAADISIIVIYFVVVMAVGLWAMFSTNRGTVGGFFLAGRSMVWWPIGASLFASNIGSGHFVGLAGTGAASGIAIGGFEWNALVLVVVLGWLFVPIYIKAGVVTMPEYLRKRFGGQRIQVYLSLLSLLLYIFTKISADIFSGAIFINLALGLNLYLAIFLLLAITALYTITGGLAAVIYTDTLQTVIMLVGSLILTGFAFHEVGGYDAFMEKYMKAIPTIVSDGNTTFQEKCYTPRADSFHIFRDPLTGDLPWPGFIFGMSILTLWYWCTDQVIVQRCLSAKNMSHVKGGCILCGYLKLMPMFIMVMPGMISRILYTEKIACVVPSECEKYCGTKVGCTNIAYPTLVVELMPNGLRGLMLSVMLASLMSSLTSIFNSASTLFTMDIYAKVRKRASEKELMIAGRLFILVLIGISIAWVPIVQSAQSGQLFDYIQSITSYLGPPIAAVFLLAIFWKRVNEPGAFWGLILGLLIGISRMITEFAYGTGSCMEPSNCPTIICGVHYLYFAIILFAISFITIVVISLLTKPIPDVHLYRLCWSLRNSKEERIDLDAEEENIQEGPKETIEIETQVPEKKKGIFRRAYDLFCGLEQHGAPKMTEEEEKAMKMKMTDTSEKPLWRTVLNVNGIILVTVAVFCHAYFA
Method: (1) Creation of CHO-K1 Cells Stably Expressing Human SGLT1
A plasmid vector expressing human SGLT1 protein was transfected into CHO-K1 cells using lipofectamine 2000 (Invitrogen). The cells were cultured in the presence of 500 μg/mL geneticin to select resistant strains, followed by screening in the system shown below using sugar uptake capacity as an indicator to obtain SGLT1-expressing cells.
(3) Inhibition Test for Sodium-Dependent Sugar Uptake in Stably Expressing Cells
The stably expressing cells prepared above were used in the following test.
Pretreatment buffer (140 mM choline chloride, 2 mM KCl, 1 mM CaCl2, 1 mM MgCl2, 10 mM HEPES/5 mM Tris, pH 7.4) was added in a volume of 200 μL to the cells stably expressing SGLT1 or 2 mL for Method A and 200 μL for Method B to the cells stably expressing SGLT2, followed by incubation for 20 minutes. The pretreatment buffer was removed and replaced by uptake buffer containing a test compound (1 mM methyl α-D-glucopyranoside (containing [^14C]methyl α-D-glucopyranoside), 140 mM NaCl, 2 mM KCl, 1 mM CaCl2, 1 mM MgCl2, 10 mM HEPES/5 mM Tris, pH 7.4) in a volume of 75 μL for SGLT1 and SGLT2 in Method B or 200 μL for SGLT2 in Method A. Uptake reaction was performed at 37° C. for 30 minutes (SGLT1) or 60 minutes (SGLT2). After the reaction, the cells were washed twice with washing buffer (10 mM methyl α-D-glucopyranoside, 140 mM choline chloride, 2 mM KCl, 1 mM CaCl2, 1 mM MgCl2, 10 mM HEPES/5 mM Tris, pH 7.4) in a volume of 200 μL for SGLT1 and SGLT2 in Method B or 2 mL for SGLT2 in Method A, and then dissolved in a 0.25 M NaOH solution (75 μL for SGLT1 and SGLT2 in Method B or 400 μL for SGLT2 in Method A). A liquid scintillator (Perkin Elmer) was added and mixed well with each sample, followed by measurement of radioactivity using a β-ray analyzer. For the control group, uptake buffer containing no test compound was prepared. Moreover, another uptake buffer containing choline chloride instead of NaCl was also prepared for basal uptake.
For determination of IC50 values, test compounds prepared at 6 appropriate concentrations were used and their concentrations required for 50% inhibition of the amount of sugar uptake (IC50 values) were calculated relative to the amount of sugar uptake in the control group (100%).

[2] = Kidney concentrations after repeated oral administration for 3 days; format: in vivo, rat; conditions: 3 mg/kg once a day for 3 days, male Sprague-Dawley rats, 48 hours after final administration
Method: (2) Kidney Concentrations of Inventive Compounds After Repeated Oral Administration for 3 Days
SD/IGS rats at 7 weeks of age (male, non-fasting, Charles River Laboratories Japan Inc.) were orally administered once a day for 3 consecutive days with compound 1-2, 5-2, 6-2, 13-2 or 15-2 according to the present invention (3 mg/kg) prepared in a 0.5% aqueous CMC solution. At 48 hours after the final drug administration, the rats were exsanguinated via the postcaval vein under isoflurane anesthesia, and their kidneys were excised after they were confirmed to be euthanized. After the tissue surface was washed with physiological saline, each tissue was measured for its weight and homogenized in 4 volumes of purified water under ice cooling. The drug concentration in each homogenate was determined in the same manner as shown in Test Example 3(1) by LC-MS/MS using compound 11 as an internal standard substance.

With `Cc1cc(/C=C/C(C)(C)C(=O)NC(C)(C)C(=O)NCCN(C)C)ccc1Cc1cc([C@@H]2O[C@H](CO)[C@@H](O)[C@H](O)[C@H]2O)c(O)cc1C(C)C` [Example 1-2] the IC50 [1] was 35 nM and the “Concentration of compounds in kidney after 3 days continuous oral administration, After 2 days” value (shortened to “Concentration of compounds in kidney”) [2] was “BLQ^# (BLQ means below lower limit of quantification(5 ng/g))”.
In the case of `Cc1cc(/C=C/C(C)(C)C(=O)NC(C)(C)C(=O)N2CCC(N(C)C)CC2)ccc1Cc1cc([C@@H]2O[C@H](CO)[C@@H](O)[C@H](O)[C@H]2O)c(O)cc1C(C)C` [Example 5-2], the IC50 [1] is reported as 42 nM and the “Concentration of compounds in kidney” value [2] is reported as “BLQ (BLQ means below lower limit of quantification(5 ng/g))”.
In the case of `Cc1cc(/C=C/C(C)(C)C(=O)NC(C)(C)C(=O)NCC(C)(C)N)ccc1Cc1cc([C@@H]2O[C@H](CO)[C@@H](O)[C@H](O)[C@H]2O)c(O)cc1C(C)C` [Example 6-2], the IC50 [1] is reported as 27 nM and the “Concentration of compounds in kidney” value [2] is reported as “BLQ (BLQ means below lower limit of quantification(5 ng/g))”.
With `COc1cc(C(C)C)c(Cc2ccc(/C=C/C(C)(C)C(=O)NC(C)(C)C(=O)NCC(C)(C)N)cc2C)cc1[C@@H]1O[C@H](CO)[C@@H](O)[C@H](O)[C@H]1O` [Example 13-2] the IC50 [1] was 54 nM and the “Concentration of compounds in kidney” value [2] was “BLQ (BLQ means below lower limit of quantification(5 ng/g))”.
With `COc1cc(C(C)C)c(Cc2ccc(/C=C/C(C)(C)C(=O)NC(C)(C)C(=O)NCCN(C)C)cc2)cc1[C@@H]1O[C@H](CO)[C@@H](O)[C@H](O)[C@H]1O` [Example 15-2] the IC50 [1] was 29 nM and the “Concentration of compounds in kidney” value [2] was “BLQ (BLQ means below lower limit of quantification(5 ng/g))”.

Reference: patent publication US8466113B2, “4-isopropylphenyl glucitol compounds as SGLT1 inhibitors” (Taisho Pharmaceutical Co., Ltd., priority 2009, dated 2013)
